This is an account of results in patent publication US6391888B1, “Topical anesthetics useful for treating cancer” (Mayo Foundation for Medical Education and Research, priority 1999, dated 2002).

Assay [1] relates to calcium-activated, phospholipid-dependent protein kinase (PKC). To be noted: data suggesting; M. K. Tomoda et al., 1990; cited from earlier work.
In another assay the target is PKCδ (Homo sapiens, UniProt Q05655). The experiment in a line: lidocaine binding to and modulation of PKCδ (applicant's discovery, no method given). The format is biochemical. To be noted: calcium independent PKC isozyme PKCδ; qualitative statement.
PKCδ, sequence (Q05655 whole entry): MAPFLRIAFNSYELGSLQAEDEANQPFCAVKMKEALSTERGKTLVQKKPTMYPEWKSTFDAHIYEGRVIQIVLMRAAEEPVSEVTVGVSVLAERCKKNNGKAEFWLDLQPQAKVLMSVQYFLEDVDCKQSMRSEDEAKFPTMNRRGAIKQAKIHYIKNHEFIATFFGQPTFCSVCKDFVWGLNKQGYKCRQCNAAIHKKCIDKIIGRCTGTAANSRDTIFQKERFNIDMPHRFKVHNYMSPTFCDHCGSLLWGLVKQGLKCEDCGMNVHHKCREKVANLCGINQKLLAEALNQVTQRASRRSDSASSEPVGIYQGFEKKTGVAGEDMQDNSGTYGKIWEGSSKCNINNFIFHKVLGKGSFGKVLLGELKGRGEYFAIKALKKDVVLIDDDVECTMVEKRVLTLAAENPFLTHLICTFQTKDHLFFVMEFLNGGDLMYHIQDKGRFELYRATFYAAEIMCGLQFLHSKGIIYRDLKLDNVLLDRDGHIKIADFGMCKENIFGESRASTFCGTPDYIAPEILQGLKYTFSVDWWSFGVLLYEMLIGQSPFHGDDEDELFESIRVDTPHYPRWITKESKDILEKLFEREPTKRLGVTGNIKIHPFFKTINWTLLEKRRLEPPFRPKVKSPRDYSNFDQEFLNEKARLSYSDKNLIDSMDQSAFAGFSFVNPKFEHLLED

Turning to `CCN(CC)CC(=O)Nc1c(C)cccc1C` [lidocaine, (2-diethylamino)-N-(2,6-dimethylphenyl)-acetamide], the “inhibition of calcium-activated, phospholipid-dependent protein kinase (PKC)” value in assay [1] was “inhibits”. The “binding to and modulation of the effects of PKCδ” value on PKCδ is “binds to and modulates (e.g. inhibits)”.
